Assay results published in the supplement of paper PMC10307832.

Experiments:
Test in all cases: relative viability (nuclei count vs DMSO), 5 days (fraction); higher = more cells survive
[1] = compound: CN1C=C(C2=CC=CC=C21)/C=C\3/C4=C(C=CC=N4)NC3=O + C[C@]1(O)C[C@@H](c2nc(-c3ccc4ccc(-c5ccccc5)nc4c3)c3c(N)nccn32)C1 [Linsitinib] (partner 1 µM)
Summary of the method: (§1)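 For relative viability, nuclei counts in treated wells were divided by those in vehicle wells. Lung cancer cell lines had been pin-tool dosed in 1536-well plates the day after seeding and cultured for 5 days, then fixed and stained in one step (final 0.05% Triton X-100, 1% formaldehyde, 1 ug/ml Hoechst) and imaged at 4×. Doses were one drug alone or a fixed anchor-drug dose plus five library-drug doses (not always all listed) in √10 steps, and values are duplicate-plate medians.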

Trametinib + Tozasertib = compound: CC(=O)Nc1cccc(-n2c(=O)n(C3CC3)c(=O)c3c(Nc4ccc(I)cc4F)n(C)c(=O)c(C)c32)c1 [Trametinib] + Cc1cc(Nc2cc(N3CCN(C)CC3)nc(Sc3ccc(NC(=O)C4CC4)cc3)n2)n[nH]1 [Tozasertib] (partner 0.1 µM)
Summary of the method: as §1

[2] = compound: CN1C=C(C2=CC=CC=C21)/C=C\3/C4=C(C=CC=N4)NC3=O + CC(C)C[C@H](NC(=O)[C@H](Cc1ccccc1)NC(=O)c1cnccn1)B(O)O [Bortezomib] (partner 0.002 µM)
Summary of the method: as §1

Trametinib + Lapatinib = compound: CC(=O)Nc1cccc(-n2c(=O)n(C3CC3)c(=O)c3c(Nc4ccc(I)cc4F)n(C)c(=O)c(C)c32)c1 [Trametinib] + CS(=O)(=O)CCNCc1ccc(-c2ccc3ncnc(Nc4ccc(OCc5cccc(F)c5)c(Cl)c4)c3c2)o1 [Lapatinib] (partner 2 µM)
Summary of the method: as §1

| Cell Line | relative viability ([1]; first compound 0.02 µM) | relative viability ([1]; first compound 0.06325 µM) | relative viability ([1]; first compound 0.2 µM) | relative viability ([1]; first compound 0.6325 µM) | relative viability ([1]; first compound 2 µM) | relative viability (Trametinib + Tozasertib; first compound 0.0025 µM) | relative viability (Trametinib + Tozasertib; first compound 0.007906 µM) | relative viability (Trametinib + Tozasertib; first compound 0.025 µM) | relative viability (Trametinib + Tozasertib; first compound 0.07906 µM) | relative viability (Trametinib + Tozasertib; first compound 0.25 µM) | relative viability ([2]; first compound 0.02 µM) | relative viability ([2]; first compound 0.06325 µM) | relative viability ([2]; first compound 0.2 µM) | relative viability ([2]; first compound 0.6325 µM) | relative viability ([2]; first compound 2 µM) | relative viability (Trametinib + Lapatinib; first compound 0.0025 µM) | relative viability (Trametinib + Lapatinib; first compound 0.007906 µM) | relative viability (Trametinib + Lapatinib; first compound 0.025 µM) | relative viability (Trametinib + Lapatinib; first compound 0.07906 µM) | relative viability (Trametinib + Lapatinib; first compound 0.25 µM) |
| --- | --- | --- | --- | --- | --- | --- | --- | --- | --- | --- | --- | --- | --- | --- | --- | --- | --- | --- | --- | --- |
| HCC-78 | 0.444 | 0.51 | 0.233 | 0.423 | 0.487 | 0.426 | 0.416 | 0.38 | 0.452 | 0.36 | 0.41 | 0.499 | 0.519 | 0.432 | 0.469 | 0.827 | 0.533 | 0.988 | 0.299 | 0.469 |
| HCC-366 | 0.616 | 0.566 | 0.656 | 0.575 | 0.51 | 0.117 | 0.0857 | 0.0884 | 0.07 | 0.0695 | 0.892 | 0.985 | 1.08 | 1.16 | 1.08 | 0.88 | 0.938 | 0.614 | 0.58 | 0.161 |
| HCC-827 | 0.929 | 0.923 |  | 0.944 | 0.926 | 0.406 | 0.401 | 0.31 | 0.293 | 0.307 | 0.898 | 1.02 |  | 1.03 | 1.03 | 0.191 | 0.164 | 0.178 | 0.208 | 0.228 |
| HOP-62 | 0.923 | 0.961 | 1.07 | 1.03 | 1.02 | 0.419 | 0.367 | 0.374 | 0.232 | 0.203 | 1.05 | 0.746 | 0.285 | 0.535 | 0.529 | 0.949 | 0.903 | 0.387 | 0.39 | 0.104 |
| IA-LM | 0.85 | 0.668 | 0.477 | 0.762 | 0.771 |  |  |  |  |  | 1 | 0.873 | 0.554 | 0.768 | 0.696 | 0.251 | 0.31 | 0.101 | 0.136 | 0.0905 |
| LCLC-103H | 1.13 | 1.13 | 1.07 | 1.13 | 1.11 | 0.495 | 0.451 | 0.417 | 0.406 | 0.35 | 0.951 | 0.984 | 0.994 | 1.22 | 1.11 |  |  |  |  |  |
| LK-2 | 0.365 | 0.333 |  | 0.474 | 0.504 | 0.183 | 0.17 | 0.186 | 0.217 | 0.184 |  |  |  |  |  | 0.797 | 0.758 | 0.822 | 0.711 | 0.375 |
| NCI-H358 | 0.632 | 0.643 | 0.881 | 0.795 | 0.686 | 0.112 | 0.107 | 0.0799 | 0.0885 | 0.0721 |  |  |  |  |  | 0.38 | 0.376 | 0.309 | 0.295 | 0.328 |
| NCI-H441 | 0.634 | 0.588 | 0.494 | 0.424 | 0.57 | 0.647 | 0.677 | 0.523 | 0.461 | 0.525 | 0.744 |  | 0.545 | 0.602 | 0.774 |  |  |  |  |  |
| NCI-H522 |  |  |  |  |  | 0.583 | 0.529 | 0.455 | 0.526 | 0.446 |  |  |  |  |  |  |  |  |  |  |
